The text below walks through data of patent publication US11046945B2, “Labeled glutaminase proteins, isolated glutaminase protein mutants, methods of use, and kit” (CORNELL UNIVERSITY, priority 2013, dated 2021).

In the experiment the target is T1, GAC (Mus musculus, UniProt D3Z7P3).
T1 construct: plasmid (residues 72-603 for GAC, 72-674 for KGA); His-tag with thrombin cleavage site (N, cleaved yes); made in house; host or cells: pET23a vector
T1 sequence (D3Z7P3 72-603 isoform D3Z7P3-2): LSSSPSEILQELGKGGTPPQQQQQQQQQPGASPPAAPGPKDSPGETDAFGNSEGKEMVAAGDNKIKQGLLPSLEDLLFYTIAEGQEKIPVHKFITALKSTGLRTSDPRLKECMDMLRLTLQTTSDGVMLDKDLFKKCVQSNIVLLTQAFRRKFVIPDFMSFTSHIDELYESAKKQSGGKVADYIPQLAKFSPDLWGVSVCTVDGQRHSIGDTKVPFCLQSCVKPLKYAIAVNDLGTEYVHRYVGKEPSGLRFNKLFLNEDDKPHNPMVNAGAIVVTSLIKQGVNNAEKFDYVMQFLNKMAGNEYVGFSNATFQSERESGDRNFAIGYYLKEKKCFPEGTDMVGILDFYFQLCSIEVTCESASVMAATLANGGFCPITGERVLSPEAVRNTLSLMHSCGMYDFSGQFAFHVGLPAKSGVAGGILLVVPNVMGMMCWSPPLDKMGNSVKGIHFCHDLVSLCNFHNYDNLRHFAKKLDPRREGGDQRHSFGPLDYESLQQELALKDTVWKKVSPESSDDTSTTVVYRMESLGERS
In words: FRET assay of GAC tetramer formation (488-GAC donor, QSY 9-GAC acceptor). To be noted: for effect on 488-GAC fluorescence emission in equilibrated 488-GAC/QSY 9-GAC mixture: 20 nM 488-GAC and 200 nM QSY 9-GAC. The format is binding. An excerpt: A mouse kidney type glutaminase isoform 1 (KGA, NP_001074550.1, which is hereby incorporated by reference in its entirety (SEQ ID NO:7)) and isoform 2 (GAC, NP_001106854.1, which is hereby incorporated by reference in its entirety (SEQ ID NO:3)) plasmid (residues 72-603 for GAC, 72-674 for KGA) was cloned into a pET23a vector containing an N-terminal histidine (His)-tag and thrombin cleavage site. The expressed protein was initially purified using Co^2+ affinity beads (Clontech), after which the His-tag was cleaved with human thrombin (Haemetologic Technologies) overnight at 4° C. and subsequently purified by anion exchange (GE healthcare) and gel filtration chromatography. Purified GAC or KGA was stored in a high salt containing buffer (20 mM Tris-HCl pH 8.5, 500 mM NaCl, 1 mM NaN3) and stored at −80° C. following snap freezing in liquid N2 for long term use. For labeling recombinant GAC or KGA with small molecule probes, 1.5 mg of enzyme was exchanged to 50 mM HEPES pH 7.2, 100 mM NaCl using a PD10 desalting column (GE healthcare) and incubated with 50 μM (5-fold excess of enzyme) of either ALEXA FLUOR® 488 succinimidyl ester or QSY® 9 succinimidyl ester (Molecular Probes) for 1 hr at 4° C. After 1 hr, the labeling reaction was quenched with 150 mM Tris-HCl pH 8.5 and unreacted probe was separated from labeled-enzyme using a PD10 desalting column eluting labeled-GAC back into the high salt containing buffer.
Fluorescence experiments were performed using a Varian Carry Eclipse Fluorometer in the counting mode. Excitation and emission wavelengths were 490 and 520 nm, respectively. Experiments were all prepared as one-mL samples and stirred continuously at 20° C. in 50 mM Tris-Acetate pH 8.5, 0.1 mM ethylenediaminetetraacetic acid (EDTA). For WT GAC titrations in the absence of inorganic phosphate, 10 nM 488-GAC was equilibrated followed by injection of 25 μL of the appropriate concentration of QSY® 9-GAC and was allowed to equilibrate for 10 minutes at which point 75 μL of the appropriate concentration of unlabeled WT GAC was added to give a concentration that was ten-times that of labeled-GAC (i.e., 10-fold excess). For FRET experiments prepared for inorganic phosphate titrations, a similar protocol was followed whereby 10 nM of 488-GAC was equilibrated with 400 nM QSY® 9-GAC followed by injection of 100 μL of the appropriate concentration of K2HPO4 prepared in 50 mM Tris-Acetate (pH=8.5) 0.1 mM EDTA buffer. To test whether purified mutants can form oligomers with WT GAC, 200 nM QSY® 9-D391K-GAC or 200 nM QSY® 9-K316E-D391K-R459E was added to an equilibrated sample of 20 nM 488-WT GAC. Likewise, when assaying the effects of BPTES and 968 on oligomer formation, BPTES or 968 (10 μM or 25 μM, respectively) was added following equilibration of a sample of 200 nM of QSY® 9-WT GAC and 20 nM 488-WT GAC. Both BPTES and 968 were prepared in DMSO, and appropriate dilutions were made so that less than 2% (v/v) DMSO was added to an experimental sample.

Consider `O=C(Cc1ccccc1)Nc1nnc(CCSCCc2nnc(NC(=O)Cc3ccccc3)s2)s1` [BPTES], for which, where the note is “10 μM BPTES”, the “effect on 488-GAC fluorescence emission in equilibrated 488-GAC/QSY 9-GAC mixture” value was “immediate quenching”. The “reversal of induced tetramers/quenching by excess unlabeled GAC” value (10 μM BPTES, 10-fold excess unlabeled GAC) is “stable and not disrupted”.

Consider `CN(C)c1ccc(C2Nc3ccc4ccccc4c3C3=C2C(=O)CC(C)(C)C3)cc1Br` (stereo not drawn) [compound 968], for which the “effect on 488-GAC fluorescence emission in equilibrated 488-GAC/QSY 9-GAC mixture” value (25 μM 968) is “significant change in the fluorescence emission”.
